Data set [1] has as its system rabbit red blood cells. The class given is cell-based. Conditions: red cells of rabbit, 1 h.
For data set [2], the system named is Escherichia coli ATCC 25922. Briefly: Oral formulations on mice with systemic bacterial infection. Conditions: three times a day for 7 days; for Number of mice that died on each day after infection: day 4 / Number of mice that died on each day after infection: day 5 / Number of mice that died on each day after infection: day 6 / Number of mice that died on each day after infection: day 7 / Number of mice that died on each day after infection: day 8 / Average survival times (Days): n = 10; for Average survival times (Days): observed for 14 d. The class given is in vivo, ICR mice. The method, then:
Both female and male ICR mice were used in the test, half of the female and male mice were taken and randomly assigned into groups, with 10 mice in each group, and kept in separate cages. The mice were divided into a blank control group, a negative control group, a positive control Levofloxacin group, and AMPs LV-1 to LV-30 groups. An Escherichia coli ATCC 25922 bacterial suspension was prepared, a concentration of the suspension was adjusted 1×10^7 CFU/mL for subsequent use. Except for the blank control group, all other mice were injected with the Escherichia coli suspension (0.2 mL, 1×10^7 CFU/mL), into abdominal cavity of the mice, to establish a model. After the model was successfully established, the mice were given drug immediately according to their body weights. Except for the blank control group and the negative control group, the mice in all other groups were gavaged with different compounds, three times a day for 7 consecutive days. The mice were then observed for 14 d. The death of mice in each group was observed, and survival time of the mice was recorded. Results of the effect of the oral formulations of AMPs LV-1 to LV-30 on the survival time of mice infected with Escherichia coli are shown in Table 11.

Marks after values point to notes of the source that are not given here. Non-standard residues stand in square brackets, D forms with d. Residues, ends and D or L forms follow the SMILES beside them. dPhe(3,4-Cl2) = N[C@H](Cc1ccc(Cl)c(Cl)c1)C(=O)O; dPhe(4-CF3) = N[C@H](Cc1ccc(C(F)(F)F)cc1)C(=O)O; dPhe(4-Br) = N[C@H](Cc1ccc(Br)cc1)C(=O)O; dPhe(4-Me) = Cc1ccc(C[C@@H](N)C(=O)O)cc1; d2Nal = N[C@H](Cc1ccc2ccccc2c1)C(=O)O; d(hLeu) = CC(C)CC[C@@H](N)C(=O)O; dNle = CCCC[C@@H](N)C(=O)O; dNva = CCC[C@@H](N)C(=O)O Bounds are passed on as bounds.

Regarding `CC(=O)N[C@H](CCCNC(=N)N)C(=O)N[C@H](CCCCN)C(=O)N[C@H](CC(C)C)C(=O)N[C@H](CC(C)C)C(=O)N[C@H](Cc1ccc(Cl)c(Cl)c1)C(=O)N[C@H](CCCCN)C(=O)N[C@H](CC(C)C)C(=O)N[C@H](CCCCN)C(=O)N[C@H](Cc1ccc(Cl)c(Cl)c1)C(=O)N[C@H](CCCCN)C(=O)N[C@H](CCCNC(=N)N)C(N)=O` [LV-8] (Ac-[dR][dK][dL][dL][dPhe(3,4-Cl2)][dK][dL][dK][dPhe(3,4-Cl2)][dK][dR]-NH2), the “MHC (minimum hemolytic concentration, lowest concentration causing 10% hemolysis)” value in data set [1] was over 1000 µg/mL. In data set [2] (1 mg/kg gavage), the “Number of mice that died on each day after infection: day 4” value (“Number of mice that died … day 4” for short) was 2 Mouse, the “Number of mice that died on each day after infection: day 5” value (shortened to “Number of mice that died … day 5”) came to 1 Mouse, the “Number of mice that died on each day after infection: day 6” value (“Number of mice that died … day 6” below) is 0 Mouse and the “Number of mice that died on each day after infection: day 7” value (from here on “Number of mice that died … day 7”) is on record as 2 Mouse. For the same molecule, in data set [2] (1 mg/kg gavage), the “Number of mice that died on each day after infection: day 8” value (shortened to “Number of mice that died … day 8”) is given as 0 Mouse and the “Average survival times (Days)” value is listed as 9.7** Days.
As for `CC(=O)N[C@H](CCCNC(=N)N)C(=O)N[C@H](CCCCN)C(=O)N[C@H](CC(C)C)C(=O)N[C@H](CC(C)C)C(=O)N[C@H](Cc1ccc(C(F)(F)F)cc1)C(=O)N[C@H](CCCCN)C(=O)N[C@H](CC(C)C)C(=O)N[C@H](CCCCN)C(=O)N[C@H](Cc1ccc(C(F)(F)F)cc1)C(=O)N[C@H](CCCCN)C(=O)N[C@H](CCCNC(=N)N)C(N)=O` [LV-9] (Ac-[dR][dK][dL][dL][dPhe(4-CF3)][dK][dL][dK][dPhe(4-CF3)][dK][dR]-NH2), the “MHC (minimum hemolytic concentration, lowest concentration causing 10% hemolysis)” value in data set [1] was over 1000 µg/mL. In addition, in data set [2] (1 mg/kg gavage), the “Number of mice that died … day 4” value was 1 Mouse, the “Number of mice that died … day 5” value is 1 Mouse, the “Number of mice that died … day 6” value was 1 Mouse and the “Number of mice that died … day 7” value stood at 2 Mouse. In data set [2] (1 mg/kg gavage), the “Number of mice that died … day 8” value amounted to 0 Mouse and the “Average survival times (Days)” value is 9.9** Days.
Turning to `CC(=O)N[C@H](CCCCN)C(=O)N[C@H](CCCCN)C(=O)N[C@H](CC(C)C)C(=O)N[C@H](CC(C)C)C(=O)N[C@H](Cc1ccc(Br)cc1)C(=O)N[C@H](CCCNC(=N)N)C(=O)N[C@H](CC(C)C)C(=O)N[C@H](CCCCN)C(=O)N[C@H](Cc1ccc(Br)cc1)C(=O)N[C@H](CCCNC(=N)N)C(=O)N[C@H](CCCCN)C(N)=O` [LV-10] (Ac-[dK][dK][dL][dL][dPhe(4-Br)][dR][dL][dK][dPhe(4-Br)][dR][dK]-NH2), the “MHC (minimum hemolytic concentration, lowest concentration causing 10% hemolysis)” value in data set [1] is over 1000 µg/mL. Further, in data set [2] (1 mg/kg gavage), the “Number of mice that died … day 4” value amounted to 0 Mouse, the “Number of mice that died … day 5” value amounted to 2 Mouse, the “Number of mice that died … day 6” value is listed as 2 Mouse and the “Number of mice that died … day 7” value is on record as 0 Mouse. In data set [2] (1 mg/kg gavage), the “Number of mice that died … day 8” value is listed as 1 Mouse and the “Average survival times (Days)” value was 10.0*** Days.
`CC(=O)N[C@H](CCCNC(=N)N)C(=O)N[C@H](CCCCN)C(=O)N[C@H](CC(C)C)C(=O)N[C@H](CC(C)C)C(=O)N[C@H](Cc1ccc(C)cc1)C(=O)N[C@H](CCCCN)C(=O)N[C@H](CC(C)C)C(=O)N[C@H](CCCCN)C(=O)N[C@H](Cc1ccc(C)cc1)C(=O)N[C@H](CCCCN)C(=O)N[C@H](CCCNC(=N)N)C(N)=O` [LV-11] (Ac-[dR][dK][dL][dL][dPhe(4-Me)][dK][dL][dK][dPhe(4-Me)][dK][dR]-NH2): in data set [1], the “MHC (minimum hemolytic concentration, lowest concentration causing 10% hemolysis)” value was over 1000 µg/mL. In data set [2] (1 mg/kg gavage), the “Number of mice that died … day 4” value was determined as 1 Mouse, the “Number of mice that died … day 5” value is given as 1 Mouse, the “Number of mice that died … day 6” value is reported as 1 Mouse and the “Number of mice that died … day 7” value turned out to be 1 Mouse. In data set [2] (1 mg/kg gavage), the “Number of mice that died … day 8” value is on record as 2 Mouse and the “Average survival times (Days)” value is 9.4** Days.
In the case of `CCCC[C@@H](NC(=O)[C@@H](CCCCN)NC(=O)[C@@H](CCCNC(=N)N)NC(C)=O)C(=O)N[C@H](CCCC)C(=O)N[C@H](Cc1ccc2ccccc2c1)C(=O)N[C@H](CCCNC(=N)N)C(=O)N[C@H](CCCC)C(=O)N[C@H](CCCCN)C(=O)N[C@H](Cc1ccc2ccccc2c1)C(=O)N[C@H](CCCNC(=N)N)C(=O)N[C@H](CCCCN)C(N)=O` [LV-12] (Ac-[dR][dK][dNle][dNle][d2Nal][dR][dNle][dK][d2Nal][dR][dK]-NH2), the “MHC (minimum hemolytic concentration, lowest concentration causing 10% hemolysis)” value in data set [1] is over 1000 µg/mL. In data set [2] (0.2 mg/kg gavage), the “Number of mice that died … day 4” value worked out at 1 Mouse, the “Number of mice that died … day 5” value is 2 Mouse, the “Number of mice that died … day 6” value stood at 2 Mouse and the “Number of mice that died … day 7” value was found to be 1 Mouse. Also, in data set [2] (0.2 mg/kg gavage), the “Number of mice that died … day 8” value came to 0 Mouse and the “Average survival times (Days)” value is reported as 8.9** Days. In data set [2] (1 mg/kg gavage), the “Number of mice that died … day 4” value amounted to 0 Mouse, the “Number of mice that died … day 5” value is given as 1 Mouse, the “Number of mice that died … day 6” value came to 0 Mouse and the “Number of mice that died … day 7” value came out at 2 Mouse. Moreover, in data set [2] (1 mg/kg gavage), the “Number of mice that died … day 8” value was found to be 1 Mouse and the “Average survival times (Days)” value was 11.1**** Days. For the same molecule, in data set [2] (5 mg/kg gavage), the “Number of mice that died … day 4” value is given as 0 Mouse, the “Number of mice that died … day 5” value was 2 Mouse, the “Number of mice that died … day 6” value turned out to be 1 Mouse and the “Number of mice that died … day 7” value is 1 Mouse. For the same molecule, in data set [2] (5 mg/kg gavage), the “Number of mice that died … day 8” value is recorded as 0 Mouse and the “Average survival times (Days)” value is listed as 10.7*** Days. For the same molecule, in data set [2] (gavage, observed 14 d), the “survival time of mice infected with Escherichia coli” value is “superior to those of the Levofloxacin group”.
In the case of `CCC[C@@H](NC(=O)[C@@H](CCCCN)NC(=O)[C@@H](CCCNC(=N)N)NC(C)=O)C(=O)N[C@H](CCC)C(=O)N[C@H](Cc1ccc2ccccc2c1)C(=O)N[C@H](CCCNC(=N)N)C(=O)N[C@H](CCC)C(=O)N[C@H](CCCCN)C(=O)N[C@H](Cc1ccc2ccccc2c1)C(=O)N[C@H](CCCNC(=N)N)C(=O)N[C@H](CCCCN)C(N)=O` [LV-13] (Ac-[dR][dK][dNva][dNva][d2Nal][dR][dNva][dK][d2Nal][dR][dK]-NH2), in data set [1], the “MHC (minimum hemolytic concentration, lowest concentration causing 10% hemolysis)” value is over 1000 µg/mL. Besides, in data set [2] (1 mg/kg gavage), the “Number of mice that died … day 4” value is listed as 3 Mouse, the “Number of mice that died … day 5” value was found to be 1 Mouse, the “Number of mice that died … day 6” value is recorded as 1 Mouse and the “Number of mice that died … day 7” value came to 0 Mouse. In data set [2] (1 mg/kg gavage), the “Number of mice that died … day 8” value is 0 Mouse and the “Average survival times (Days)” value was 9.3** Days.
In the case of `CC(=O)N[C@H](CCCNC(=N)N)C(=O)N[C@H](CCCCN)C(=O)N[C@H](CCC(C)C)C(=O)N[C@H](CCC(C)C)C(=O)N[C@H](Cc1ccc2ccccc2c1)C(=O)N[C@H](CCCNC(=N)N)C(=O)N[C@H](CCC(C)C)C(=O)N[C@H](CCCCN)C(=O)N[C@H](Cc1ccc2ccccc2c1)C(=O)N[C@H](CCCNC(=N)N)C(=O)N[C@H](CCCCN)C(N)=O` [LV-14] (Ac-[dR][dK][d(hLeu)][d(hLeu)][d2Nal][dR][d(hLeu)][dK][d2Nal][dR][dK]-NH2), the “MHC (minimum hemolytic concentration, lowest concentration causing 10% hemolysis)” value in data set [1] was over 1000 µg/mL. Moreover, in data set [2] (1 mg/kg gavage), the “Number of mice that died … day 4” value was 1 Mouse, the “Number of mice that died … day 5” value came out at 2 Mouse, the “Number of mice that died … day 6” value was 1 Mouse and the “Number of mice that died … day 7” value was found to be 0 Mouse. In addition, in data set [2] (1 mg/kg gavage), the “Number of mice that died … day 8” value is given as 1 Mouse and the “Average survival times (Days)” value is 9.8** Days.
Turning to `CC(=O)N[C@H](CCCNC(=N)N)C(=O)N[C@H](CCCCN)C(=O)N[C@H](C)C(=O)N[C@H](C)C(=O)N[C@H](Cc1ccc2ccccc2c1)C(=O)N[C@H](CCCNC(=N)N)C(=O)N[C@H](C)C(=O)N[C@H](CCCCN)C(=O)N[C@H](Cc1ccc2ccccc2c1)C(=O)N[C@H](CCCNC(=N)N)C(=O)N[C@H](CCCCN)C(N)=O` [LV-15] (Ac-[dR][dK][dA][dA][d2Nal][dR][dA][dK][d2Nal][dR][dK]-NH2), the “MHC (minimum hemolytic concentration, lowest concentration causing 10% hemolysis)” value in data set [1] was over 1000 µg/mL. In data set [2] (1 mg/kg gavage), the “Number of mice that died … day 4” value was 1 Mouse, the “Number of mice that died … day 5” value was determined as 3 Mouse, the “Number of mice that died … day 6” value worked out at 0 Mouse and the “Number of mice that died … day 7” value is recorded as 1 Mouse. In data set [2] (1 mg/kg gavage), the “Number of mice that died … day 8” value was determined as 0 Mouse and the “Average survival times (Days)” value is given as 9.6** Days.

(Values after US20250304620A1, “ANTIMICROBIAL PEPTIDE AND APPLICATION THEREOF” (priority 2023, published 2025).)
